Laboratory results taken from patent US10053457B2, “Hydroxyalkyl-piperazine derivatives as CXCR3 receptor modulators” (IDORSIA PHARMACEUTICALS LTD, priority 2015, dated 2018).

Assays:
Type in all cases: cell-based
human CXCR3A = human CXCR3A (Homo sapiens (Human), UniProt P49682); assay: FLIPR assay (CXCL10-induced calcium signal); settings: CHO-K1 cells expressing human CXCR3A coupled to Galpha(16); CXCL10 agonist 20 nM; mean values
Excerpt: (§1) In the case where IC50 values have been determined several times for the same compound, mean values are given.

hERG K channel = hERG K channel (Homo sapiens (Human), UniProt Q12809); assay: hERG Q-Patch assay; settings: CHO cells expressing hERG, K+ tail current 3 min after application, mean of two or three experiments
Chain of hERG K channel (Q12809 whole entry): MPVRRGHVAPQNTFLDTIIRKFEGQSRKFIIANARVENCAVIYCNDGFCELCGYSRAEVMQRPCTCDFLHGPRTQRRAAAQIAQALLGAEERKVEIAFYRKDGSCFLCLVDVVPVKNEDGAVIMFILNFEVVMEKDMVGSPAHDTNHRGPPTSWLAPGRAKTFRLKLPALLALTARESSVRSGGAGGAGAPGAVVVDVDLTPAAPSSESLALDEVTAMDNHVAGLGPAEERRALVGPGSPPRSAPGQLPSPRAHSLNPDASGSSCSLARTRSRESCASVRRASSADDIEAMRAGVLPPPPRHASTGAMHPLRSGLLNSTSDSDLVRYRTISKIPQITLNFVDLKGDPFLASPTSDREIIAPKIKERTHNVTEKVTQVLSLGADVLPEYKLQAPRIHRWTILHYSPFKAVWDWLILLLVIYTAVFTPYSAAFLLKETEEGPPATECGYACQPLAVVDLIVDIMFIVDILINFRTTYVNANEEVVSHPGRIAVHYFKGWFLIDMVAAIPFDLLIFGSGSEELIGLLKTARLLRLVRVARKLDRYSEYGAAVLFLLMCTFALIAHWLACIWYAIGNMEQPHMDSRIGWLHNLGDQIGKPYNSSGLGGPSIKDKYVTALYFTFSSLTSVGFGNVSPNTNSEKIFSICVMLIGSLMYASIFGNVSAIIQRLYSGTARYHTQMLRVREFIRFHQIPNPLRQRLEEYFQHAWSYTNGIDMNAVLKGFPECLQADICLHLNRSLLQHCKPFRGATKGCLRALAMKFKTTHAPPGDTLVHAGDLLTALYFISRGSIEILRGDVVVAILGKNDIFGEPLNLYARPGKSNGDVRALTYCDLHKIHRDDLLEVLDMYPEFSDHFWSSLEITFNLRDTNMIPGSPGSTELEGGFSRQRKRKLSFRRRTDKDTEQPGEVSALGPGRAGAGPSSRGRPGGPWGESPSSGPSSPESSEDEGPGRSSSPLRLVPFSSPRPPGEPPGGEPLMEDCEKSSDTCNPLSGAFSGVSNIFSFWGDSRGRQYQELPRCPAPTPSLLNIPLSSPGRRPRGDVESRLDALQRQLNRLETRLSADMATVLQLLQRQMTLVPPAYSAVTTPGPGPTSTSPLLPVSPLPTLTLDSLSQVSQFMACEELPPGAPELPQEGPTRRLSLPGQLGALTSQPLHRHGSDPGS
Description: Compounds are evaluated for block of the hERG K channel using CHO cells stably expressing the hERG gene (accession number U04270, bSys, Witterswil, Switzerland) and the QPatch robotic platform (Sophion, Ballerup, Denmark) in single-cell mode at room temperature. Cells are grown in culture flasks at 37° C. in 5% CO2, in culture medium (Ham's F-12 Nutrient Mixture, Invitrogen 21765-029) supplemented with 9% (v/v) fetal calf serum, 0.9% Penicillin/Streptomycin (10,000 U/mL, Invitrogen 15140148), 100 μg/mL Hygromycin B (Invitrogen 10687010). When the cells are ˜80% confluent (every 2-3 days), they are either split for further culture or used for electrophysiology. For further culture, cells are detached with 0.25% Trypsin EDTA solution (Invitrogen 25200-056) and a fraction of the cells (10-30%) is reseeded in culture medium. For electrophysiology, on the experimental day, cells are detached with 0.25% Trypsin EDTA solution and all cells are suspended in suspension medium (293 SFM II, Invitrogen 11686-029) supplemented with 20 mM HEPES and 0.04 mg/mL Trypsin inhibitor. Cells are kept in suspension medium at 32-35° C. in the QPatch robot until use, at which time aliquots are transferred to the extracellular solution (in mM: NaCl 150; KCl 4; CaCl2 1.2; MgCl2 1; HEPES 10; pH 7.4 with NaOH) containing 0.3% v/v DMSO and applied to the test plates. K^+ currents are measured with the patch-voltage-clamp technique in the whole-cell configuration with the internal solution (in mM: KCl, 140; NaCl, 10; MgCl2, 1; HEPES, 10: EGTA, 5; pH=7.2 with KOH). Currents are low-pass filtered using the internal Bessel filter of the QPatch robot with a cut-off frequency of 2 kHz and are digitized at 10 kHz. K^+ tail currents are produced from a holding voltage of −80 mV by a 500-ms depolarization to +20 mV followed by a 500-ms repolarization to −40 mV; tail current amplitudes are measured at the end of the repolarization to −40 mV. The pulse pattern is repeated every 10 sec during the experiment, baseline K^+ current is measured after 3 min in extracellular solution, test-solution containing compound is then applied, and K^+ current in presence of compound is measured 3 minutes after application to the cells. The respective test-solution is prepared by (1) dissolving the test-compound in pure DMSO, (2) diluting this DMSO solution in extracellular solution, and (3) adding further DMSO, such that the final test-solution has a concentration of either 300 nM or 3000 nM of the test-compound and contains 0.3% v/v DMSO. Compound effects are quantified as % block by dividing the current in presence of compound by the baseline current; two or three experiments are performed for each compound and the final value represents the mean of the results of each experiment.

CXCR3 = CXCR3 (Homo sapiens (Human), UniProt P49682); assay: Receptor internalization assay in human whole blood (CXCR3 surface expression on CD4 positive cells, CXCL10); settings: final CXCL10 9 nM, 30 min at 37° C., mean values
Chain of CXCR3 (P49682 whole entry): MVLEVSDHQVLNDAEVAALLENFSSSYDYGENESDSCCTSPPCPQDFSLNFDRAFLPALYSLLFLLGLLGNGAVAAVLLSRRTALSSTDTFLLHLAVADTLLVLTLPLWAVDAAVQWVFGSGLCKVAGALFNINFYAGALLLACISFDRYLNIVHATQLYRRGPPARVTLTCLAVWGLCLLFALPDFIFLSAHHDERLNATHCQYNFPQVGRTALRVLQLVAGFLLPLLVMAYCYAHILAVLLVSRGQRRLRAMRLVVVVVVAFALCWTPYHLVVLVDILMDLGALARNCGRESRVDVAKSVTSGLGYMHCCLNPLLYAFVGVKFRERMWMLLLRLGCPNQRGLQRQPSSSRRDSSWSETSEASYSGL
Description: Diluted compounds are then mixed with an equal volume of CXCL10 (Peprotech) diluted in PBS. Anticoagulated venous human whole blood is added to the mixture, which is then incubated in a CO2 incubator at 37° C. to allow for ligand mediated receptor internalization (final CXCL10 concentration is 9 nM). After 30 min, the blood is mixed with fluorescently labeled CXCR3 and CD4 specific antibodies (Becton Dickinson) and incubated on ice for 10 minutes. Samples are then mixed with BD FACS Lysing Solution (Becton Dickinson) in order to eliminate red blood cells. After washing the cells with PBS containing 0.5% BSA, the samples are then analyzed in a flow cytometer (FACS Canto II, Becton Dickinson). For data analysis using FACSDiva software (Becton Dickinson), the mean fluorescence corresponding to CXCR3 cell surface expression was determined on CD4 positive cells. The program GraphPad Prism or similar software is used to fit the data to a single site dose response curve and to calculate IC50 values.
as §1

Chain of human CXCR3A (P49682 whole entry): as above

IC50 (human CXCR3A) | IC50 (CXCR3) | SMILES | % block (hERG K channel; concentration 300 nM) | % block (hERG K channel; concentration 3000 nM)
0.001 µM | 0.0597 µM | Cc1ccn(CC(=O)N2CCN(c3sc(C(F)(F)F)nc3-c3cnc(C(F)(F)F)nc3)C[C@H]2CO)n1 [Example 42, 1-{(S)-2-Hydroxymethyl-4-[2-trifluoromethyl-4-(2-trifluoromethyl-pyrimidin-5-yl)-thiazol-5-yl]-piperazin-1-yl}-2-(3-methyl-pyrazol-1-yl)-ethanone] | 2% | 15%
0.027 µM | 0.652 µM | CCc1ncnn1CC(=O)N1CCN(c2sc(C(F)(F)F)nc2-c2cnc(C(F)(F)F)nc2)C[C@H]1CCO [Example 33, 2-(5-Ethyl-[1,2,4]triazol-1-yl)-1-{(R)-2-(2-hydroxy-ethyl)-4-[2-trifluoromethyl-4-(2-trifluoromethyl-pyrimidin-5-yl)-thiazol-5-yl]-piperazin-1-yl}-ethanone] | −5% | 6%
0.0069 µM | 0.324 µM | Cc1nc(C)n(CC(=O)N2CCN(c3sc(C(F)(F)F)nc3-c3cnc(C(F)(F)F)nc3)C[C@@H]2CO)n1 [Example 12, 2-(3,5-Dimethyl-[1,2,4]triazol-1-yl)-1-{(R)-2-hydroxymethyl-4-[2-trifluoromethyl-4-(2-trifluoromethyl-pyrimidin-5-yl)-thiazol-5-yl]-piperazin-1-yl}-ethanone] | 1% | 3%
0.00045 µM | 0.0302 µM | O=C(Cn1ccc(C2CC2)n1)N1CCN(c2sc(C(F)(F)F)nc2-c2cnc(C(F)(F)F)nc2)C[C@H]1CCO [Example 41, 2-(3-Cyclopropyl-pyrazol-1-yl)-1-{(R)-2-(2-hydroxy-ethyl)-4-[2-trifluoromethyl-4-(2-trifluoromethyl-pyrimidin-5-yl)-thiazol-5-yl]-piperazin-1-yl}-ethanone] | 12% | 60%
0.0011 µM | 0.961 µM | CC(C)c1ncn(CC(=O)N2CCN(c3sc(C(F)(F)F)nc3-c3ccc(C(F)(F)F)nc3)C[C@@H]2CO)n1 [Example 10, 1-{(R)-2-Hydroxymethyl-4-[2-trifluoromethyl-4-(6-trifluoromethyl-pyridin-3-yl)-thiazol-5-yl]-piperazin-1-yl}-2-(3-isopropyl-[1,2,4]triazol-1-yl)-ethanone] | 2% | 12%
0.0013 µM | 1.52 µM | O=C(Cn1cnc(C(F)(F)F)n1)N1CCN(c2sc(C(F)(F)F)nc2-c2cnc(C3CC3)nc2)C[C@H]1CO [Example 9, 1-{(S)-4-[4-(2-Cyclopropyl-pyrimidin-5-yl)-2-trifluoromethyl-thiazol-5-yl]-2-hydroxymethyl-piperazin-1-yl}-2-(3-trifluoromethyl-[1,2,4]triazol-1-yl)-ethanone] | 8% | 24%
0.0011 µM | 0.214 µM | O=C(Cn1cnc(C(F)(F)F)n1)N1CCN(c2sc(C(F)(F)F)nc2-c2cnc(C(F)(F)F)nc2)C[C@H]1CCO [Example 28, 1-{(R)-2-(2-Hydroxy-ethyl)-4-[2-trifluoromethyl-4-(2-trifluoromethyl-pyrimidin-5-yl)-thiazol-5-yl]-piperazin-1-yl}-2-(3-trifluoromethyl-[1,2,4]triazol-1-yl)-ethanone] | 6% | 40%
0.0023 µM | 1.66 µM | COc1ccc2c(ccn2CC(=O)N2CCN(c3sc(C(F)(F)F)nc3-c3cnc(C(F)(F)F)nc3)C[C@@H]2CO)c1 [Example 15, 1-{(R)-2-Hydroxymethyl-4-[2-trifluoromethyl-4-(2-trifluoromethyl-pyrimidin-5-yl)-thiazol-5-yl]-piperazin-1-yl}-2-(5-methoxy-indol-1-yl)-ethanone] | 8% | 35%

Continued, compound first:

SMILES | IC50 (human CXCR3A) | IC50 (CXCR3) | % block (hERG K channel; concentration 300 nM) | % block (hERG K channel; concentration 3000 nM)
Cc1ccn(CC(=O)N2CCN(c3sc(C(F)(F)F)nc3-c3cnc(C(F)(F)F)nc3)C[C@@H]2CO)n1 [Example 22, 1-{(R)-2-Hydroxymethyl-4-[2-trifluoromethyl-4-(2-trifluoromethyl-pyrimidin-5-yl)-thiazol-5-yl]-piperazin-1-yl}-2-(3-methyl-pyrazol-1-yl)-ethanone] | 0.0016 µM | 0.105 µM | 4% | 15%
Cc1nc(C)n(CC(=O)N2CCN(c3sc(C(F)(F)F)nc3-c3cnc(C(F)(F)F)nc3)C[C@H]2CCO)n1 [Example 27, 2-(3,5-Dimethyl-[1,2,4]triazol-1-yl)-1-{(R)-2-(2-hydroxy-ethyl)-4-[2-trifluoromethyl-4-(2-trifluoromethyl-pyrimidin-5-yl)-thiazol-5-yl]-piperazin-1-yl}-ethanone] | 0.0052 µM | 0.235 µM | 1% | 4%
CCc1ncn(CC(=O)N2CCN(c3sc(C(F)(F)F)nc3-c3cnc(C(F)(F)F)nc3)C[C@H]2CCO)n1 [Example 32, 2-(3-Ethyl-[1,2,4]triazol-1-yl)-1-{(R)-2-(2-hydroxy-ethyl)-4-[2-trifluoromethyl-4-(2-trifluoromethyl-pyrimidin-5-yl)-thiazol-5-yl]-piperazin-1-yl}-ethanone] | 0.0026 µM | 0.0933 µM | 0% | 19%
O=C(Cn1cnc(C2CC2)n1)N1CCN(c2sc(C(F)(F)F)nc2-c2cnc(C(F)(F)F)nc2)C[C@H]1CO [Example 3, 2-(3-Cyclopropyl-[1,2,4]triazol-1-yl)-1-{(S)-2-hydroxymethyl-4-[2-trifluoromethyl-4-(2-trifluoromethyl-pyrimidin-5-yl)-thiazol-5-yl]-piperazin-1-yl}-ethanone] | 0.003 µM | 0.191 µM | 0% | 12%
O=C(Cn1ccc(C2CC2)n1)N1CCN(c2sc(C(F)(F)F)nc2-c2cnc(C(F)(F)F)nc2)C[C@H]1CO [Example 44, 2-(3-Cyclopropyl-pyrazol-1-yl)-1-{(S)-2-hydroxymethyl-4-[2-trifluoromethyl-4-(2-trifluoromethyl-pyrimidin-5-yl)-thiazol-5-yl]-piperazin-1-yl}-ethanone] | 0.00038 µM | 0.076 µM | 5% | 34%
